# Measured values reported in patent publication US9095589B2, “Chirally pure isomers of itraconazole for use as angiogenesis inhibitors” (Johns Hopkins University, priority 2007, dated 2015).
# Entries after “also recorded” stand apart in the source; their conditions may differ. Read-outs that look alike come from different tables or passages of the source.
# Legend:
# BAEC [1] = experiment: Cell cycle progression of BAEC; type: cell-based, bovine
# [2] = system: human foreskin fibroblasts (HFF); experiment: Human foreskin fibroblast proliferation (Calcein-AM); type: cell-based; conditions: 96 h with drug
# Procedure: Human foreskin fibroblast (HFF) cells were cultured at passage 2 in DMEM low glucose, 10% fetal bovine serum, and 1% penicillin-streptomycin. Experiments were performed with 2,500 cells/well in 0.2 mL and incubated for 96 h with drug. Plates containing cells were washed once with PBS, incubated with 1 μM Calcein-AM (Molecular Probes) in PBS for 4 h, and read in a fluorescent plate reader. IC50 values were determined using four-parameter logarithmic analysis with GraphPad Prism and are presented as mean±s.e.m. for triplicate experiments.
# HUVEC [3] = experiment: HUVEC proliferation assay ([3H]-thymidine incorporation); type: cell-based, human; conditions: for IC50: Homo sapiens, HUVEC
# Procedure: (§1) HUVEC were purchased from Cambrex Biosciences (Walkersvilie, Md.) and maintained in EGM-2 media (Cambrex) which contains VEGF, bFGF, and EGF. LPDS were purchased from Intracell. BAEC and Hela cells were maintained in DMEM media containing 10% FBS. Jurkat cells were maintained in RPMI media containing 10% FBS. In a typical experiment 5,000-10,000 cells/well in 0.2 mL EGM-2 media were allowed to adhere for 8 h and then incubated with drug for 36 h. Cells were pulsed with 1 μCi [^3H]-thymidine for 8 h (MP Biomedicals, 6.7 Ci/mmol), and harvested using trypsin onto glass fiber filters (Wallac, Turku, Finland). The readout was performed on a Perkin Elmer MicroBeta plate reader. Cells used were under five passages.
# Endothelial cells form the inner lining of all blood vessels and constitute an essential part of new as well as pre-existing blood vessels. An endothelial cell proliferation assay was utilized to screen our clinical drug library. The screen was carried out in 96-well plates with each drug at a final concentration of 10 μM. Thus, HUVEC were incubated with drugs for 36 h and proliferation was measured by following incorporation of [3H]-thymidine for the final 8 h. The preliminary screen identified 210 existing drugs with at least 50% inhibition at 10 μM, which belong to multiple drug classes (FIG. 1a).
# [4] = system: new blood vessel formation in Matrigel plugs; experiment: Mouse Matrigel model of angiogenesis; type: in vivo; conditions: mice, 37.5 mg/kg i.p. once daily, Matrigel with VEGF and bFGF, 10 days
# Procedure: To determine whether itraconazole inhibited angiogenesis in vivo, itraconazole was tested in a mouse Matrigel model. […] Female athymic nude 5-week old, 25-30 g mice were purchased from NO and treated in accordance with standard procedures. In all animal experiments the i.v. formulation of itraconazole was obtained from the Johns Hopkins Hospital Pharmacy. Control mice were treated with vehicle (40% hydroxypropyl-β-cyclodextrin, 2.5% propylene glycol, pH 4.5). Mice were pretreated for three days and then implanted subcutaneously with 0.5 mL of Matrigel (BD Biosciences) containing 100 ng/mL VEGF and 150 ng/mL bFGF. Drug treatment was continued daily for 10 days, mice were sacrificed, and plugs were harvested, fixed in neutral buffered formalin, and processed for histology using MAS-trichrome staining. A cross section of the entire Matrigel plug was photographed at 100× and erythrocyte-filled blood vessels were counted per field in a blinded manner. P-values comparing itraconazole versus vehicle treated mice were determined using the two-tailed Student's T-test; and the data are presented as mean±s.e.m.
# BAEC [5] = experiment: BAEC proliferation with or without free cholesterol ([3H]-thymidine); type: cell-based, bovine; conditions: for IC50: Bos taurus, DMEM 10% LPDS, 36 h
# Procedure: BAEC were incubated in DMEM, 10% lipoprotein deficient serum (LPDS) with indicated concentrations of itraconazole (a) azalanstat (b) or TNP-470 (c) either alone or in combination with 40 μg/ml free cholesterol for 36 h. Cells were then pulsed with 1 μCi [^3H]-thymidine for 8 h before they are harvested for scintillation counting.
# as §1
# A hallmark of inhibitors of 14DM is that their potencies are dependent on the levels of cholesterol in cell culture medium. Thus, the potencies of both azalanstat and itraconazole in cell culture media either containing or lacking cholesterol was determined.
# HUVEC [6] = experiment: HUVEC Proliferation Assay of itraconazole stereoisomers; type: cell-based, human
# Procedure: HUVEC were plated in a 96-well plate at a density of 2000 cells/well 199 μL media. After recovering overnight, cells were incubated for 24 hours with drugs added from 200×DMSO stocks. Next, cells were incubated with 0.9 μCi of [^3H]-thymidine for 6 h, washed once with PBS, trypsinized, and transferred to filtermats (Wallac) using a Mach III M Harvester 96 (Tomtec). The filtermats were then dried overnight. Using a 1450 Microbeta apparatus (Wallac), the amount of [^3H] at each position on the filtermat was determined by scintillation counting. Counts from vehicle only treated controls were used to normalize for maximum proliferation. Experiments were conducted in triplicate with multiple technical replicates for each data point. A four parameter logistic regression was used to determine IC50 values (GraphPad Prism [v4.03]).
# (§2) After the quality of all stereoisomers was confirmed, the potency of each stereoisomer against HUVEC proliferation and fungal growth was determined (FIG. 7). HUVEC were incubated with drug or vehicle alone for 24 hours and then pulsed for 6 hours with [^3H]-thymidine, the incorporation of which was taken as a readout of cell proliferation. Inhibition of fungal growth was assayed by incubating five yeast strains with 2-fold serial dilutions of each stereoisomer for 30-60 hours depending on the strain, and then measuring the OD600 of the culture to quantitate growth. The minimum concentration capable of inhibiting growth by 80% (MIC80) was determined.
# HUVEC [7] = experiment: HUVEC cell cycle analysis (propidium iodide, FACS); type: cell-based, human
# Source text: To delineate the mechanism of inhibition of endothelial cell proliferation by itraconazole, the effect on the cell cycle progression of HUVEC by fixing and staining cells with propidium iodide followed by FACS analysis was examined.
# five yeast strains = experiment: Fungal Susceptibility Assays (MIC80); type: cell-based, C. glabrata, C. neoformans, S. cerevisiae, C. albicans; conditions: four out of five strains
# Source text: (§3) Pooled HUVEC and EGM-2 bullet kits were purchased from Lonza. Powdered RPMI 1640 media with L-glutamine and without sodium bicarbonate was purchased from Gibco. Amino acids, uracil, and agar were purchased from Sigma and morpholinepropanesulfonic acid (MOPS) was purchased from Fisher. Dimethyl Sulfoxide (DMSO) was purchased from J. T. Baker. C. glabrata strains BG1 (J. Infect. Dis. 1996, 173, 425-431) and BG2 (Genetics 1999, 151, 979-987), C. neoformans H99 (Am. J. Pathol. 1980, 101, 177-193), S. cerevisiae BY4741 (MATa, ura3, his3, leu2, met15), and C. albicans (ATCC 10261) were used.
# Fungi were grown overnight in 5 mL YES supplemented 225 mg/L adenine, histidine, leucine, uracil, and lysine (supplemented YES) at 30° C. with shaking. […] Abs600 was measured using a plate reader (Bio-Tek Synergy HT) after vigorous shaking for 45 seconds to resuspend the cells. The background absorbance from noninoculated wells was subtracted and the absorbance of test wells was divided by that of wells treated with vehicle alone. […]
# After the quality of all stereoisomers was confirmed, the potency of each stereoisomer against HUVEC proliferation and fungal growth was determined (FIG. 7). HUVEC were incubated with drug or vehicle alone for 24 hours and then pulsed for 6 hours with [^3H]-thymidine, the incorporation of which was taken as a readout of cell proliferation. […]
# C. neoformans H99 = experiment: Fungal Susceptibility Assay (MIC80), C. neoformans; type: cell-based
# Source text: as §3
# Fungi were grown overnight in 5 mL YES supplemented 225 mg/L adenine, histidine, leucine, uracil, and lysine (supplemented YES) at 30° C. with shaking. Cultures were diluted to 0.01 OD600 in RPMI (with L-glutamine, without sodium bicarbonate) which was supplemented with 2% glucose, 225 mg/L adenine, histidine, methionine, leucine, uracil, and lysine and buffered with 165 mM MOPS to 7.0 (complete RPMI). This solution was then further diluted 190-fold in complete RPMI in 96-well plates containing test compounds in a final volume of 150 μL. When practical, the intermediate RPMI dilution was bypassed and the overnight cultures were directly diluted to the appropriate OD600 in the RPMI solution that was added to the 96-well plates. Two-fold serial dilutions of the compounds were tested starting at 4 ug/mL with each well containing 0.125% vehicle (DMSO). The plates were incubated in a humidified environment at 30° C. with shaking for 30 hours except for experiments with C. neoformans which was incubated for 54 h. Abs600 was measured using a plate reader (Bio-Tek Synergy HT) after vigorous shaking for 45 seconds to resuspend the cells. The background absorbance from noninoculated wells was subtracted and the absorbance of test wells was divided by that of wells treated with vehicle alone. The percent of remaining growth for each drug concentration was averaged over 2-3 independent experiments, each with two technical replicates, and the minimum concentration giving 80% inhibition (MIC80) was determined.
# as §2
# [8] = 40 μg/ml free cholesterol, read-out: IC50, endothelial cell proliferation in the presence of cholesterol
# [9] = no cholesterol, read-out: IC50, endothelial cell proliferation in the absence of cholesterol
smiles,measurement,setting,value
CCC(C)n1ncn(-c2ccc(N3CCN(c4ccc(OCC5COC(Cn6cncn6)(c6ccc(Cl)cc6Cl)O5)cc4)CC3)cc2)c1=O (racemic) [Itraconazole],percentage of cells in G1,BAEC [1]; Cholesterol,66.2%
same,percentage of cells in G2/M,BAEC [1]; Cholesterol,12.0%
same,percentage of cells in S,BAEC [1]; Cholesterol,21.2%
same,percentage of cells in G1,BAEC [1]; Control (no added cholesterol),77.0%
same,percentage of cells in G2/M,BAEC [1]; Control (no added cholesterol),12.0%
same,percentage of cells in S,BAEC [1]; Control (no added cholesterol),10.5%
same,IC50,[2],> 20 µM
same,IC50,HUVEC [3],160 nM
same,decrease in new blood vessel formation compared to vehicle-treated controls,[4],67.5%
same,IC50,BAEC [5]; [8],230 nM
same,IC50,BAEC [5]; [9],44 nM
"CCC(C)n1ncn(-c2ccc(N3CCN(c4ccc(OC[C@@H]5CO[C@@](Cn6cncn6)(c6ccc(Cl)cc6Cl)O5)cc4)CC3)cc2)c1=O (single isomer, unassigned; diastereomer 4) [4R-cis diastereomer]","fold more potent than the 4S-cis stereoisomer, HUVEC proliferation",HUVEC [3],about 20 fold
same,IC50,HUVEC [3],56 ± 10 nM
same,potency against HUVEC proliferation,HUVEC [6],slightly more potent than the cis-4S isomer
"CCC(C)n1ncn(-c2ccc(N3CCN(c4ccc(OC[C@H]5CO[C@](Cn6cncn6)(c6ccc(Cl)cc6Cl)O5)cc4)CC3)cc2)c1=O (single isomer, unassigned; stereoisomer 4) [4S-cis stereoisomer]",effect on HUVEC cell cycle progression,HUVEC [7],potently inhibits HUVEC cell cycle progression at the G1/S transition
same,IC50,HUVEC [3],1100 ± 130 nM
Nc1ccc(SC[C@@H]2CO[C@](CCc3ccc(Cl)cc3)(Cn3ccnc3)O2)cc1 [Azalanstat],percentage of cells in G1,BAEC [1]; Cholesterol,70.2%
same,percentage of cells in G2/M,BAEC [1]; Cholesterol,10.0%
same,percentage of cells in S,BAEC [1]; Cholesterol,19.4%
same,percentage of cells in G1,BAEC [1]; Control (no added cholesterol),74.5%
same,percentage of cells in G2/M,BAEC [1]; Control (no added cholesterol),8.8%
same,percentage of cells in S,BAEC [1]; Control (no added cholesterol),16.8%
same,effect on HUVEC cell cycle progression,HUVEC [7],blocked the cell cycle progression
same,IC50,BAEC [5]; [8],1200 nM
same,IC50,BAEC [5]; [9],310 nM
"CC[C@H](C)n1ncn(-c2ccc(N3CCN(c4ccc(OC[C@@H]5CO[C@@](Cn6cncn6)(c6ccc(Cl)cc6Cl)O5)cc4)CC3)cc2)c1=O [Compound 23a, 4-(4-(4-(4-(((2S,4R)-2-((1H-1,2,4-triazol-1-yl)methyl)-2-(2,4-dichlorophenyl)-1,3-dioxolan-4-yl)methoxy)phenyl)piperazin-1-yl)phenyl)-1-((S)-sec-butyl)-1H-1,2,4-triazol-5(4H)-one]",potency against HUVEC proliferation,HUVEC [6],greatest antiangiogenic potential
same,"difference in potency between 23a and 23f (most and least potent), HUVEC proliferation",HUVEC [6]; 24 h with drug,greater than 4 fold
"CC[C@@H](C)n1ncn(-c2ccc(N3CCN(c4ccc(OC[C@@H]5CO[C@@](Cn6cncn6)(c6ccc(Cl)cc6Cl)O5)cc4)CC3)cc2)c1=O [Compound 23b, 4-(4-(4-(4-(((2S,4R)-2-((1H-1,2,4-triazol-1-yl)methyl)-2-(2,4-dichlorophenyl)-1,3-dioxolan-4-yl)methoxy)phenyl)piperazin-1-yl)phenyl)-1-((R)-sec-butyl)-1H-1,2,4-triazol-5(4H)-one]",potency against HUVEC proliferation,HUVEC [6],greatest antiangiogenic potential
"CC[C@H](C)n1ncn(-c2ccc(N3CCN(c4ccc(OC[C@H]5CO[C@@](Cn6cncn6)(c6ccc(Cl)cc6Cl)O5)cc4)CC3)cc2)c1=O [Compound 23e, 4-(4-(4-(4-(((2S,4S)-2-((1H-1,2,4-triazol-1-yl)methyl)-2-(2,4-dichlorophenyl)-1,3-dioxolan-4-yl)methoxy)phenyl)piperazin-1-yl)phenyl)-1-((S)-sec-butyl)-1H-1,2,4-triazol-5(4H)-one]",antifungal potency,five yeast strains,roughly as potent as the cis-diastereomers; also recorded: about as potent as the cis diastereomers
same,fold less potent than 23g and 23h,C. neoformans H99,2 fold
same,fold less potent than the best inhibitor,C. neoformans H99,32 fold
"CC[C@@H](C)n1ncn(-c2ccc(N3CCN(c4ccc(OC[C@H]5CO[C@@](Cn6cncn6)(c6ccc(Cl)cc6Cl)O5)cc4)CC3)cc2)c1=O [Compound 23f, 4-(4-(4-(4-(((2S,4S)-2-((1H-1,2,4-triazol-1-yl)methyl)-2-(2,4-dichlorophenyl)-1,3-dioxolan-4-yl)methoxy)phenyl)piperazin-1-yl)phenyl)-1-((R)-sec-butyl)-1H-1,2,4-triazol-5(4H)-one]",antifungal potency,five yeast strains,roughly as potent as the cis-diastereomers; also recorded: about as potent as the cis diastereomers
same,fold less potent than 23g and 23h,C. neoformans H99,2 fold
same,fold less potent than the best inhibitor,C. neoformans H99,32 fold
CO[C@@H]1[C@H](OC(=O)NC(=O)CCl)CC[C@]2(CO2)[C@H]1[C@@]1(C)O[C@@H]1CC=C(C)C [TNP-470],potency on endothelial cell proliferation in absence versus presence of cholesterol,BAEC [5]; with or without 40 μg/ml free cholesterol,roughly equal potency
